Laboratory results from patent US20050245563A1 (Millennium Pharmaceuticals, Inc., priority 2003, published 2005).

Each compound was assayed against T1, human Chk1 (GST-Chk1) (Homo sapiens, UniProt O14757) (assay: Chk1 DELFIA kinase assay (2 nM GST-Chk1, 600 μM ATP)). Settings: Biotin-GLYRSPSMPEN-amide substrate.
T1 construct: made in house; host or cells: insect cells (baculovirus, Bac-to-Bac)
T1 sequence (O14757 1-476): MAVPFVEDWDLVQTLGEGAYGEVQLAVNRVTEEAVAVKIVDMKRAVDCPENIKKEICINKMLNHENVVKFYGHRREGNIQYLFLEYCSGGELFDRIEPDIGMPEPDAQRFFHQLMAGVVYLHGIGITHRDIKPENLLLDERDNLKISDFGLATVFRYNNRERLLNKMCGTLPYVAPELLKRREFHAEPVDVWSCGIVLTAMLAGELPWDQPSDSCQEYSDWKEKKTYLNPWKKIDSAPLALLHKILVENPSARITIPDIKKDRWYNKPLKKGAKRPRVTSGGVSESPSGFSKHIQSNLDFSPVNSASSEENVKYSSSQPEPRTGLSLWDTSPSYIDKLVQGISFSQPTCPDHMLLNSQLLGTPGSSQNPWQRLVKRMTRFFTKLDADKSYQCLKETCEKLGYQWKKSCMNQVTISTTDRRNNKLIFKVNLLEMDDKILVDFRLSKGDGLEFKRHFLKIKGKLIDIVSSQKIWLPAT
Assay type: biochemical
Description: Recombinant human Chk1 was expressed as a fusion protein with glutathione S-transferase at the amino-terminus (GST-Chk1) using standard baculovirus vectors and (Bac-to-Bac®) insect cell expression system purchased from GIBCO™ Invitrogen. Recombinant protein expressed in insect cells was purified using glutathione sepharose (Amersham Biotech) using standard procedures described by the manufacturer.
Chk1 DELFIA® Kinase Assay:
Assays (25 μL) utilized 2 nM GST-Chk1 containing 10 mM Tris, pH 7.5, 20% glycerol, 50 mM sodium chloride (NaCl), 0.01% Surfact-Amps® 20, 1 μM peptide stubstrate (Biotin-GLYRSPSMPEN-amide) (SEQ ID NO: 3), 01.% BSA, 2 mM DTT, 4% DMSO, 600 μM ATP, 10 MM MgCl2 and reacted for 50 minutes at room temperature. Reactions were terminated with 100 μL of Stop buffer containing 1% BSA, 10 mM Tris, pH 8.0, 150 mM NaCl, 100 mM EDTA. Stopped reactions (100 μL) were transferred to 96 well NeutrAvidin plates (Pierce) to capture the biotin-peptide substrate during a 30 minute room temperature incubation. Wells were washed and reacted with 100 μL PerkinElmer Wallac Assay Buffer containing 21.5 ng/ml anti-phospho-Ser216-Cdc25c rabbit polyclonal antibody from Cell Signaling Technology (Beverly, Mass.) and 292 ng/ml europium labeled anti-rabbit-IgG for 1 hour at room temperature. Wells were washed and europium released from the bound antibody by addition of Enhancement Solution (100 μL) (PerkinElmer Wallac) and detected using a Perkin Elmer Wallac Envison™ 2100 multilabel reader using standard manufacturer settings.
In the case of `Cc1[nH]nc2c1c(=O)n(CCCN)c1ccc(NC(=O)[C@H]3CCCN3)cc21` [Example 263, Pyrrolidine-2R-carboxylic acid [5-(3-amino-propyl)-3-methyl-4-oxo-4,5-dihydro-2H-pyrazolo[4,3-c]quinolin-8-yl]-amide], the IC50 is reported as under 1000 nM.
In the case of `Cc1[nH]nc2c1c(=O)n(CCCN)c1ccc(NC(=O)CN(C)C)cc21` [Example 264, N-[5-(3-aminopropyl)-3-methyl-4-oxo4,5-dihydro-2H-pyrazolo[4,3-c]quinolin-8-yl]-2-dimethylaminoacetamide], the IC50 is reported as under 1000 nM.
Compound `COC(=O)/C(=C/c1ccc2c(c1)c1n[nH]c(C)c1c(=O)n2CCCN)NC(C)=O` [Example 270, 2-Acetylamino-3-[5-(3-amino-propyl)-3-methyl-4-oxo-4,5-dihydro-2H-pyrazolo[4,3-c]quinolin-8-yl]-acrylic acid methyl ester] has an IC50 of under 1000 nM.
For `Cc1[nH]nc2c1c(=O)n(CCCN)c1ccc(C#N)cc21` [Example 271, 5-(3-Amino-propyl)-3-methyl-4-oxo-4,5-dihydro-2H-pyrazolo[4,3-c]quinoline-8-carbonitrile], the IC50 was under 1000 nM.
`Cc1[nH]nc2c1c(=O)n(CCCN)c1ccc(C#CCO)cc21` [Example 272, 5-(3-Amino-propyl)-8-(3-hydroxy-prop-1-ynyl)-3-methyl-2,5-dihydro-pyrazolo[4,3-c]quinolin-4-one] was tested, and the IC50 was under 1000 nM.
With `Cc1[nH]nc2c1c(=O)n(CCCN)c1ccc(C#CCN)cc21` [Example 273, 5-(3-Amino-propyl)-8-(3-amino-prop-1-ynyl]-3-methyl 2,5-dihydro-pyrazolo[4,3-c]quinolin-4-one] the IC50 was under 1000 nM.
For `CNCC#Cc1ccc2c(c1)c1n[nH]c(C)c1c(=O)n2CCCN` [Example 274, 5-(3-Amino-propyl)-3-methyl 8-(3-methylamino-prop-1-ynyl]-2,5-dihydro-pyrazolo[4,3-c]quinolin-4-one], the IC50 was under 1000 nM.
For `Cc1[nH]nc2c1c(=O)n(CCCN)c1ccc(C#CCN(C)Cc3ccccc3)cc21` [Example 275, 5-(3-Amino-propyl)-8-[3-(benzyl-methyl-amino)-prop-1-ynyl]-3-methyl-2,5-dihydro-pyrazolo[4,3-c]quinolin-4-one], the IC50 was under 1000 nM.
With `CC(=O)NCC#Cc1ccc2c(c1)c1n[nH]c(C)c1c(=O)n2CCCN` [Example 276, N-{^3-[5-(3-Amino-propyl)-3-methyl-4-oxo4,5-dihydro-2H-pyrazolo[4,3-c]quinolin-8-yl]-prop-2-ynyl]-acetamide] the IC50 was under 1000 nM.
Work on `Cc1[nH]nc2c1c(=O)n(CCCN)c1ccc(C#Cc3cccnc3)cc21` [Example 277] yielded an IC50 of under 1000 nM.
`Cc1[nH]nc2c1c(=O)n(CCCN)c1ccc(C#Cc3ccccn3)cc21` [Example 278, 5-(3-Amino-propyl)-3-methyl-8-pyridin-2-ylethylynyl-2,5-dihydro-pyrazolo[4,3-c]quinolin-4-one] gave an IC50 of under 1000 nM.
`Cc1[nH]nc2c1c(=O)n(CCCN)c1ccc(C#Cc3ccncc3)cc21` [Example 279, 5-(3-Amino-propyl)-3-methyl-8-pyridin-4-ylethylynyl-2,5-dihydro-pyrazolo[4,3-c]quinolin-4-one] was tested, and the IC50 was under 1000 nM.
For `Cc1[nH]nc2c1c(=O)n(CCCN)c1ccc(C#CCOc3ccccc3)cc21` [Example 280, 5-(3-Amino-propyl)-3-methyl-8-(3-phenoxy-prop-1-ynyl)-2,5-dihydro-pyrazolo[4,3-c]quinolin-4-one], the IC50 was under 1000 nM.
`COCC#Cc1ccc2c(c1)c1n[nH]c(C)c1c(=O)n2CCCN` [Example 281, 5-(3-Amino-propyl)-8-(3-methoxy-prop-1-ynyl)-3-methyl-2,5-dihydro-pyrazolo[4,3-c]quinolin-4-one] gave an IC50 of under 1000 nM.
With `Cc1[nH]nc2c1c(=O)n(CCCN)c1ccc(C#CC(C)O)cc21` (centres unmarked) [Example 282, 5-(3-Amino-propyl)-8-(3-hydroxy-but-1-ynyl)-3-methyl 2,5-dihydro-pyrazolo[4,3-c]quinolin-4-one] the IC50 was under 1000 nM.
`CC#Cc1ccc2c(c1)c1n[nH]c(C)c1c(=O)n2CCCN` [Example 283, 5-(3-Amino-propyl)-3-methyl 8-prop-1-ynyl-2,5-dihydro-pyrazolo[4,3-c]quinolin-4-one] gave an IC50 of under 1000 nM.
`Cc1[nH]nc2c1c(=O)n(CCCN)c1ccc(C#CCN(C)C)cc21` [Example 284, 5-(3-Amino-propyl)-8-(3-dimethylamino-prop-1-ynyl]-3-methyl 2,5-dihydro-pyrazolo[4,3-c]quinolin-4-one] showed an IC50 of under 1000 nM.
Compound `Cc1[nH]nc2c1c(=O)n(CCCN)c1ccc(C#CCN3CCCC3)cc21` [Example 285, 5-(3-Amino-propyl)-3-methyl-8-(3-pyrrolidin-1-yl-prop-1-ynyl]-2,5-dihydro-pyrazolo[4,3-c]quinolin4-one] has an IC50 of under 1000 nM.
With `Cc1[nH]nc2c1c(=O)n(CCCN)c1ccc(C#CCN3CCCCC3)cc21` [Example 286, 5-(3-Amino-propyl)-3-methyl-8-(3-piperidin-1-yl-prop-1-ynyl]-2,5-dihydro-pyrazolo[4,3-c]quinolin-4-one] the IC50 was under 1000 nM.
In the case of `CC(=O)N1CCN(CC#Cc2ccc3c(c2)c2n[nH]c(C)c2c(=O)n3CCCN)CC1` [Example 287, 8-[3-(4-Acetyl-piperazin-1-yl)-prop-1-ynyl]-5-(3-amino-propyl)-3-methyl-2,5-dihydro-pyrazolo[4,3-c]quinolin-4-one], the IC50 is reported as under 1000 nM.
`Cc1[nH]nc2c1c(=O)n(CCCN)c1ccc(C#CCN3CCN(C)CC3)cc21` [Example 288, 5-(3-Amino-propyl)-3-methyl-8-[3-(4-methyl-piperazin-1-yl)-prop-1-ynyl]-2,5-dihydro-pyrazolo[4,3-c]quinolin-4-one] gave an IC50 of under 1000 nM.
Work on `Cc1[nH]nc2c1c(=O)n(CCCN)c1ccc(C#CCN3CCOCC3)cc21` [Example 289, 5-(3-Amino-propyl)-3-methyl-8-(3-morpholin-4-yl-prop-1-ynyl]-2,5-dihydro-pyrazolo[4,3-c]quinolin-4-one] yielded an IC50 of under 1000 nM.
With `Cc1[nH]nc2c1c(=O)n(CCCN)c1ccc(C#CCn3ccnc3)cc21` [Example 290, 5-(3-Amino-propyl)-8-(3-imidazol-1-yl-prop-1-ynyl]-3-methyl-2,5-dihydro-pyrazolo[4,3-c]quinolin-4-one] the IC50 was under 1000 nM.
Work on `C#Cc1ccc2c(c1)c1n[nH]c(C)c1c(=O)n2CCCN` [Example 291, 5-(3-Amino-propyl)-8-ethynyl-3-methyl-2,5-dihydro-pyrazolo[4,3-c]quinolin-4-one] yielded an IC50 of under 1000 nM.
In the case of `C#Cc1ccc2c(c1)c1n[nH]c(CCOC)c1c(=O)n2CCCN` [Example 292, 5-(3-Amino-propyl)-8-ethynyl-3-(2-methoxy-ethyl)-2,5-dihydro-pyrazolo[4,3-c]quinolin-4-one], the IC50 is reported as under 1000 nM.
`C#Cc1ccc2c(c1)c1n[nH]c(C)c1c(=O)n2CCCNC` [Example 293, 8-Ethynyl-3-methyl-5-(3-methylamino-propyl)-2,5-dihydro-pyrazolo[4,3-c]quinolin-4-one] showed an IC50 of under 1000 nM.
With `CCc1ccc2c(c1)c1n[nH]c(C)c1c(=O)n2CCCN` [Example 294, 5-(3-Amino-propyl)-8-ethyl-3-methyl-2,5-dihydro-pyrazolo[4,3-c]quinolin4-one] the IC50 was under 1000 nM.
In the case of `COCCCc1ccc2c(c1)c1n[nH]c(C)c1c(=O)n2CCCN` [Example 295, 5-(3-amino-propyl)-8-(3-methoxypropyl)-3-methyl-2,5-dihydro-pyrazolo[4,3-c]quinolin-4-one], the IC50 is reported as under 1000 nM.
`Cc1[nH]nc2c1c(=O)n(CCCN)c1ccc(CCCN(C)C)cc21` [Example 296, 5-(3-Amino-propyl)-8-(3-dimethylamino-propyl)-3-methyl-2,5-dihydro-pyrazolo[4,3-c]quinolin-4-one] showed an IC50 of under 1000 nM.
`Cc1[nH]nc2c1c(=O)n(CCCN)c1ccc(CCCN3CCCC3)cc21` [Example 297, 5-(3-Amino-propyl)-3-methyl-8-(3-pyrrolidin-1-yl-propyl)-2,5-dihydro-pyrazolo[4,3-c]quinolin-4-one] gave an IC50 of under 1000 nM.
With `CC(=O)NCCCc1ccc2c(c1)c1n[nH]c(C)c1c(=O)n2CCCN` [Example 298, N-{3-[5-(3-Amino-propyl)-3-methyl-4-oxo-4,5-dihydro-2H-pyrazolo[4,3-c]quinolin-8-yl]-propyl}-acetamide] the IC50 was under 1000 nM.
`Cc1[nH]nc2c1c(=O)n(CCCN)c1ccc(CCc3ccccn3)cc21` [Example 299, 5-(3-Amino-propyl)-3-methyl-8-(2-pyridin-2-yl-thyl)-2,5-dihydro-pyrazolo[4,3-c]quinolin-4-one] gave an IC50 of under 1000 nM.
